Where two headings read alike, the source gives them in different places.
What was measured:
[1] = target: T1, JAK2 (Homo sapiens, UniProt O60674); experiment: Biochemical JAK2 kinase assay (LanthaScreen); details: for Ki: read-out: JAK 2 (pKi) (converted)
T1 construct: GST; purchased Life Technologies
Description: (§1) A panel of four LanthaScreen JAK biochemical assays (JAK1, 2, 3 and Tyk2) were carried in a common kinase reaction buffer (50 mM HEPES, pH 7.5, 0.01% Brij-35, 10 mM MgCl2, and 1 mM EGTA). Recombinant GST-tagged JAK enzymes and a GFP-tagged STAT1 peptide substrate were obtained from Life Technologies.
(§2) Serially or discretely diluted compounds were pre-incubated with each of the four JAK enzymes and the substrate in white 384-well microplates (Corning) at ambient temperature for 1 h. ATP was subsequently added to initiate the kinase reactions in 10 μL total volume, with 1% DMSO. […] Kinase reactions were allowed to proceed for 1 hour at ambient temperature before a 10 μL preparation of EDTA (10 mM final concentration) and Tb-anti-pSTAT1 (pTyr701) antibody (Life Technologies, 2 nM final concentration) in TR-FRET dilution buffer (Life Technologies) was added. The plates were allowed to incubate at ambient temperature for 1 h before being read on the EnVision reader (Perkin Elmer).
(§3) For dose-response analysis, percent inhibition data were plotted vs. compound concentrations, and IC50 values were determined from a 4-parameter robust fit model with the Prism software (GraphPad Software). Results were expressed as pIC50 (negative logarithm of IC50) and subsequently converted to pKi (negative logarithm of dissociation constant, Ki) using the Cheng-Prusoff equation.

[2] = system: IL-2 stimulated pSTAT5 in Tall-1 T cells; experiment: Cellular JAK3 potency assay: inhibition of IL-2 stimulated pSTAT5 in Tall-1 T cells; type: cell-based, human; details: for IC50: Homo sapiens, read-out: Tall-1 (pIC50) (converted)
Procedure, shortened: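 Tall-1 human T cells (45,000/well) in phenol red-free DMEM with 10% FBS were preincubated with compound 1 h at 37 °C, then stimulated with IL-2 (final 300 ng/ml) for 30 min. Lysate pSTAT5 read by AlphaLisa; IC50 from inhibition curves, reported as pIC50 (mean±SD).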

[3] = target: T2, Tyk2 (Homo sapiens, UniProt P29597); experiment: Biochemical Tyk2 kinase assay (LanthaScreen); details: for Ki: read-out: Tyk 2 (pKi) (converted)
T2 construct: GST; purchased Life Technologies
T2 sequence (P29597 whole entry): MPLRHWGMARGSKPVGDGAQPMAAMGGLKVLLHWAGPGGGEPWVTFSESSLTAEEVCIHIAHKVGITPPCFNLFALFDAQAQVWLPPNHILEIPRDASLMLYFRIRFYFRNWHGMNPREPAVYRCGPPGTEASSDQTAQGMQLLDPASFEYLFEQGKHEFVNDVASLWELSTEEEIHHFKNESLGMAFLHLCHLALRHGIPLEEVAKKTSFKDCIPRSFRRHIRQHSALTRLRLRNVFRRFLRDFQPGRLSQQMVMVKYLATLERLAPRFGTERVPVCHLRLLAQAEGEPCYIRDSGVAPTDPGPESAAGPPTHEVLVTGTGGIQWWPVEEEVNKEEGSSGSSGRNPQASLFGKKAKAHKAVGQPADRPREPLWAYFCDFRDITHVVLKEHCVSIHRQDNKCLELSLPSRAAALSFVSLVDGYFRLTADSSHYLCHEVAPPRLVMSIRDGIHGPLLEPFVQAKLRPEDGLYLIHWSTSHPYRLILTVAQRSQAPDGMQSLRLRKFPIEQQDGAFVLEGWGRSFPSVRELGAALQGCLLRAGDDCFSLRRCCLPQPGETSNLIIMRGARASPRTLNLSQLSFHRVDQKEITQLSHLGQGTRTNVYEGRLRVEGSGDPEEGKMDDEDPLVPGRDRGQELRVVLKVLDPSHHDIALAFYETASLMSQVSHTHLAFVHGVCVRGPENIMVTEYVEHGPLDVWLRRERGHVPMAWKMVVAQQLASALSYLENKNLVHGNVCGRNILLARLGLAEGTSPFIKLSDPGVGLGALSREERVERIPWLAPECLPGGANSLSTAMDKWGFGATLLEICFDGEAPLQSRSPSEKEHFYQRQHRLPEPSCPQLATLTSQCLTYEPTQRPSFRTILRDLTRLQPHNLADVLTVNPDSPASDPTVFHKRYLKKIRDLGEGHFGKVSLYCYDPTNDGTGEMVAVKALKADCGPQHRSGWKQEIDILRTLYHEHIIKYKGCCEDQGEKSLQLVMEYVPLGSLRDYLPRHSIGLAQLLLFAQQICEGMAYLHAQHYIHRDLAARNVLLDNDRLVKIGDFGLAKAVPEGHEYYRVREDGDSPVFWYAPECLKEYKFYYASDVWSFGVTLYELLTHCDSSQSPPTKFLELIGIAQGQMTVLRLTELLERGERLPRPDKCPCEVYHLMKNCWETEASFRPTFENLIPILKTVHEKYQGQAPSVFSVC
Description: as §1
as §2, with “Elmer). Emission ratio signals (520 nm/495 nm) were recorded and utilized to calculate the percent inhibition values based on DMSO and background controls.” for “Elmer).”
as §3

[4] = target: T3, JAK3 (Homo sapiens, UniProt P52333); experiment: Biochemical JAK3 kinase assay (LanthaScreen); design: GST; purchased Life Technologies; details: for Ki: read-out: JAK 3 (pKi) (converted)
T3 sequence (P52333 1-1124): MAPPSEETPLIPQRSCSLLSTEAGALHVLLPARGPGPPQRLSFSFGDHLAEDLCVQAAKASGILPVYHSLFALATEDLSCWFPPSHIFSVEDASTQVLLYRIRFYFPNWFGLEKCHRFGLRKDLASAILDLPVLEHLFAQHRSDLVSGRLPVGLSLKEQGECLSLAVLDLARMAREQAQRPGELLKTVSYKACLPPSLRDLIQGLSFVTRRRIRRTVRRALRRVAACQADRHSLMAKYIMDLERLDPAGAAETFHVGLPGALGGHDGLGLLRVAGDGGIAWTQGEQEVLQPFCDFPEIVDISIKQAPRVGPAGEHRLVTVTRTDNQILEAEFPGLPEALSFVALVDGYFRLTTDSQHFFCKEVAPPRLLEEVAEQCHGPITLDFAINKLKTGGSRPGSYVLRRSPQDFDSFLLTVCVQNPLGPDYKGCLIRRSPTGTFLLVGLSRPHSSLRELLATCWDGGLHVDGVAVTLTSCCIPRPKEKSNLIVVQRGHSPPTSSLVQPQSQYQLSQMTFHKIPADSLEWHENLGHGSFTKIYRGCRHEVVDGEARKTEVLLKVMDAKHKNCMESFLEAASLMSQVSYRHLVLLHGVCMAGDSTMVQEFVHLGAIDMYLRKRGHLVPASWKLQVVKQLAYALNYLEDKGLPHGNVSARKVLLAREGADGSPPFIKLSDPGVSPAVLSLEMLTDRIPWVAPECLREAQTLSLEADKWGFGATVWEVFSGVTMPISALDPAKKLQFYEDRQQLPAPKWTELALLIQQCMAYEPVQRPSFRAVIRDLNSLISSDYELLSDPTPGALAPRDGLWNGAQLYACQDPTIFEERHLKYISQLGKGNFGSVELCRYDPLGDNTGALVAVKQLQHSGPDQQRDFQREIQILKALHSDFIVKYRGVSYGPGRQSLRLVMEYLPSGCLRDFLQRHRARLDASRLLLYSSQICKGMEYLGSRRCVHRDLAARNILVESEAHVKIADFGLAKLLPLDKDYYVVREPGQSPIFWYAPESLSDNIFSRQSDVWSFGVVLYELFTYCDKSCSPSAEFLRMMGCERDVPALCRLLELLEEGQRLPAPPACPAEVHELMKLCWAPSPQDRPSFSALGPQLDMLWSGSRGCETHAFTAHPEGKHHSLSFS
Procedure, shortened: (§4)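 TR-FRET read-out: terbium anti-pSTAT1 (pTyr701) antibody, 2 nM, with 10 mM EDTA quench, emission ratio 520/495 nm. GST-JAK phosphorylates GFP-STAT1 peptide for 1 h at ambient temperature after 1 h compound pre-incubation. pIC50 from dose-response converted to pKi by Cheng-Prusoff.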

[5] = target: T4, JAK1 (Homo sapiens, UniProt P23458); experiment: Biochemical JAK1 kinase assay (LanthaScreen); details: for Ki: read-out: JAK 1 (pKi) (converted)
T4 construct: GST; purchased Life Technologies
T4 sequence (P23458 whole entry): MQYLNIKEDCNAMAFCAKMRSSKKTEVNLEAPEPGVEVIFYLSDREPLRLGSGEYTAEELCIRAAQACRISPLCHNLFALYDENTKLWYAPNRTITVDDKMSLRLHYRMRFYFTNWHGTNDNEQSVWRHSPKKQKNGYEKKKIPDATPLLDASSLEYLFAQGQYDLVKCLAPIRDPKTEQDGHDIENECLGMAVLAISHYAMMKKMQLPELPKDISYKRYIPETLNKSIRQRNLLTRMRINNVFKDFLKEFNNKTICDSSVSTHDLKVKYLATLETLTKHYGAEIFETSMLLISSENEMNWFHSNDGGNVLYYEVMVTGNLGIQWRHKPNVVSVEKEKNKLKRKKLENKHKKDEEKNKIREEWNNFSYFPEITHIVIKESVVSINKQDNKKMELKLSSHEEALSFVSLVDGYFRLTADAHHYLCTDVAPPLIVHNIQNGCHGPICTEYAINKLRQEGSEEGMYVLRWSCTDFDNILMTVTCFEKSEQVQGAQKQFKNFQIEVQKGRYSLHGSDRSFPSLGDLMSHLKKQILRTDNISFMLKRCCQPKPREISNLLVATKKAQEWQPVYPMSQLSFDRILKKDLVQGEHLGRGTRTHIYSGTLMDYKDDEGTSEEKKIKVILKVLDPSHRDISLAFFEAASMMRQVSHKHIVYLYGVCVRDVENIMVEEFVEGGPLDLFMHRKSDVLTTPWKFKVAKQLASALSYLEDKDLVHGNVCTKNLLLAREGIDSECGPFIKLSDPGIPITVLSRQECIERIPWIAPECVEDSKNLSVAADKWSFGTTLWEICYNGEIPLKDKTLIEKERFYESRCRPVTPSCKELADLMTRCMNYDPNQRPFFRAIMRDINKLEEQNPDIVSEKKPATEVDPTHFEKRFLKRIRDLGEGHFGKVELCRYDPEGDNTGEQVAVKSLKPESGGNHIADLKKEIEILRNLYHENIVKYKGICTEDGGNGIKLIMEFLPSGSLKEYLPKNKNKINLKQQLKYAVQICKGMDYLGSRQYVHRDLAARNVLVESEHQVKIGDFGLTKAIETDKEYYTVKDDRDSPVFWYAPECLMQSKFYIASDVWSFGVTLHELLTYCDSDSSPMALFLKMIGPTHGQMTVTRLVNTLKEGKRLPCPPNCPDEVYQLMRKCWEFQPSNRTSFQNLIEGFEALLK
Procedure, shortened: as §4

[6] = TALL-1, IL-2 stimulated pSTAT5 in Tall-1 T cells
[7] = selectivity: difference of pKi JAK3 and pKi JAK1
[8] = IL-2 stimulated pSTAT5 in Tall-1 T cells
[9] = IL-2 stimulated pSTAT5, Tall-1 T cells
[10] = selectivity JAK3 over JAK1, difference of pKi
[11] = TALL-1, IL-2 stimulated pSTAT5, Tall-1 T cells

T1 sequence (O60674 whole entry): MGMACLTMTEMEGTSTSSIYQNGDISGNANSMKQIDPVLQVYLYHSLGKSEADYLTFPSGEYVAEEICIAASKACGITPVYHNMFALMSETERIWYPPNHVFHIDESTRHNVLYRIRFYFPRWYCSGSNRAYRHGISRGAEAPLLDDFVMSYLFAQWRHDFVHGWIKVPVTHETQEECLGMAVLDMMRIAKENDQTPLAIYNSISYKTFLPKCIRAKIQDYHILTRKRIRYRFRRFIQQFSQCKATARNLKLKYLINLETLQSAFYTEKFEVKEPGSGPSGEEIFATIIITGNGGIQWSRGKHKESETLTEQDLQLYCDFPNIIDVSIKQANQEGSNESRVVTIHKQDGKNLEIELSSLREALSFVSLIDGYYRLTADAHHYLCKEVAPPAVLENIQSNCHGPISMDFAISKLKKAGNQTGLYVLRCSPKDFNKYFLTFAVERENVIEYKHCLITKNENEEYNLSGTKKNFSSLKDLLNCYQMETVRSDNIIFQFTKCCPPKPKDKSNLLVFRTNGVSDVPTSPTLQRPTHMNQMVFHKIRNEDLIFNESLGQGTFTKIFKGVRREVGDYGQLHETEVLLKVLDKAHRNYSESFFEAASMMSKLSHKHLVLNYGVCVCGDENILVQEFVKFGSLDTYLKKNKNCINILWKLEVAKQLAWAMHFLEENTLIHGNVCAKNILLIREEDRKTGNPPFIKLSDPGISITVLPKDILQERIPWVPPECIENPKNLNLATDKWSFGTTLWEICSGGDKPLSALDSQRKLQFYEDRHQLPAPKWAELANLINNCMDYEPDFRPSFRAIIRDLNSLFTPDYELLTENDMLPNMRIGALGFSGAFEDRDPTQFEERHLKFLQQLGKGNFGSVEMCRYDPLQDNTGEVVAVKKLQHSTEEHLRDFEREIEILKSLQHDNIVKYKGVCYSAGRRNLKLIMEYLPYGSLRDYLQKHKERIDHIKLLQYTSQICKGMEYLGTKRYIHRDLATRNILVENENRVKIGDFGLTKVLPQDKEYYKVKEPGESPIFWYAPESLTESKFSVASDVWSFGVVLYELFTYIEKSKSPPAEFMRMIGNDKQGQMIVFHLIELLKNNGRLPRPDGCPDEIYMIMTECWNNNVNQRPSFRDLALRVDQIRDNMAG

| SMILES | Ki [1] | IC50 [2, 6] | Ki [3] | Ki [4] | JAK3 (pKi)-JAK1 (pKi) [4, 7] | Ki [5] | JAK 2 (pKi) [1] | Tall-1 (pIC50) [2, 8] | Tyk 2 (pKi) [3] | JAK 3 (pKi) [4] | JAK 1 (pKi) [5] | Tall-1 (pIC50) [2, 9] | JAK3 (pKi)-JAK1 (pKi) [4, 10] | IC50 [2, 11] |
| --- | --- | --- | --- | --- | --- | --- | --- | --- | --- | --- | --- | --- | --- | --- |
| CN(C)C/C=C/C(=O)N1CC(C#N)(COc2nc(-c3ccc(O)cc3)cc3[nH]ncc23)C1 [Compound 3-102] | > 100 nM | 31.6 to 200 nM | > 100 nM | 0.1 to 1 nM | A (a value of 3 or above) | > 100 nM |  |  |  |  |  |  |  |  |
| C=CC(=O)N1CC(Nc2cc(-c3ccc(O)cc3)cc3[nH]ncc23)C1 [Compound 5-7] |  |  |  |  | A (a value of 3 or above) |  | D (a pKi value between 7 and 8 (Ki between 100 nM and 10 nM)) | B (a pIC50 value between 6.7 (included) and 7.5 (IC50 between 200 nM and 32 nM)) | E (a pKi value of 7 or below (Ki of 100 nM or above)) | A (a pKi value≥10 (Ki≤0.1 nM)) | E (a pKi value of 7 or below (Ki of 100 nM or above)) |  |  |  |
| C=CC(=O)N1CC(COc2cc(-c3ccc(O)c(F)c3)cc3[nH]ncc23)(OC)C1 [Compound 3-75] |  |  |  |  | A (a value of 3 or above) |  | E (a pKi value of 7 or below (Ki of 100 nM or above)) | A (a pIC50 value≥7.5 (IC50≤32 nM)) | E (a pKi value of 7 or below (Ki of 100 nM or above)) | B (a pKi value between 9 and 10 (Ki between 1 nM and 0.1 nM)) | E (a pKi value of 7 or below (Ki of 100 nM or above)) |  |  |  |
| C=CC(=O)N1CCC(Oc2cc(-c3ccc(O)cc3)nc3[nH]ncc23)CC1C (centres unmarked) [Compound 13-11] |  |  |  |  |  |  | E (a pKi value of 7 or below (Ki of 100 nM or above)) |  | E (a pKi value of 7 or below (Ki of 100 nM or above)) | A (a pKi value≥10 (Ki≤0.1 nM)) | E (a pKi value of 7 or below (Ki of 100 nM or above)) | A (a pIC50 value≥7.5 (IC50≤32 nM)) | A (a value of 3 or above) |  |
| CCC1(COc2cc(-c3ccc(O)c(Cl)c3)cc3[nH]ncc23)CN(C(=O)/C=C/CN(C)C)C1 [Compound 3-15] | > 100 nM | 31.6 to 200 nM | > 100 nM | < 0.1 nM | A (a value of 3 or above) | > 100 nM |  |  |  |  |  |  |  |  |
| C=CC(=O)N1CC(F)(COc2cc(-c3ccc(O)c(F)c3)nc3[nH]ncc23)C1 [Compound 3-54] |  |  |  |  | A (a value of 3 or above) |  | E (a pKi value of 7 or below (Ki of 100 nM or above)) | A (a pIC50 value≥7.5 (IC50≤32 nM)) | E (a pKi value of 7 or below (Ki of 100 nM or above)) | B (a pKi value between 9 and 10 (Ki between 1 nM and 0.1 nM)) | E (a pKi value of 7 or below (Ki of 100 nM or above)) |  |  |  |
| C=CC(=O)N1CCO[C@@H](C(=O)Nc2nc(-c3ccc(O)c(F)c3)cc3[nH]ncc23)C1 [Compound 13-21] |  |  |  |  |  |  | D (a pKi value between 7 and 8 (Ki between 100 nM and 10 nM)) |  | E (a pKi value of 7 or below (Ki of 100 nM or above)) | B (a pKi value between 9 and 10 (Ki between 1 nM and 0.1 nM)) | E (a pKi value of 7 or below (Ki of 100 nM or above)) | A (a pIC50 value≥7.5 (IC50≤32 nM)) | B (a value of 2.3 to 3) |  |
| CN(C)C/C=C/C(=O)N1CC(C)(COc2cc(-c3ccc(O)cc3)cc3[nH]ncc23)C1 [Compound 3-7] | 10 to 100 nM | 31.6 to 200 nM | > 100 nM | < 0.1 nM | A (a value of 3 or above) | > 100 nM |  |  |  |  |  |  |  |  |
| Cc1n[nH]c2cc(-c3ccc(O)c(Cl)c3)cc(OCC3CN(C(=O)/C=C/CN(C)C)C3)c12 [Compound 18-1] | 10 to 100 nM |  | > 100 nM | 0.1 to 1 nM |  | > 100 nM |  |  |  |  |  |  | B (a value of 2.3 to 3) | < 31.6 nM |
| CN(C)C/C=C/C(=O)N1CC[C@H](Oc2cc(-c3ccc(O)cc3)cc3[nH]ncc23)C1 [Compound 1-1] | 10 to 100 nM |  | > 100 nM | 0.1 to 1 nM | A (a value of 3 or above) | > 100 nM |  |  |  |  |  |  |  |  |
| C=CC(=O)N1C2CCC1CC(Nc1cc(-c3ccc(O)cc3)cc3[nH]ncc13)C2 (centres unmarked) [Compound 10-7] |  |  |  |  |  |  | D (a pKi value between 7 and 8 (Ki between 100 nM and 10 nM)) |  | E (a pKi value of 7 or below (Ki of 100 nM or above)) | B (a pKi value between 9 and 10 (Ki between 1 nM and 0.1 nM)) | E (a pKi value of 7 or below (Ki of 100 nM or above)) | B (a pIC50 value between 6.7 (included) and 7.5 (IC50 between 200 nM and 32 nM)) | A (a value of 3 or above) |  |
| CN(C)C/C=C/C(=O)N1CCC(C)(Nc2cc(-c3ccc(O)c(Cl)c3)cc3[nH]ncc23)CC1 [Compound 7-8] |  |  |  |  |  |  | E (a pKi value of 7 or below (Ki of 100 nM or above)) |  | E (a pKi value of 7 or below (Ki of 100 nM or above)) | A (a pKi value≥10 (Ki≤0.1 nM)) | E (a pKi value of 7 or below (Ki of 100 nM or above)) | B (a pIC50 value between 6.7 (included) and 7.5 (IC50 between 200 nM and 32 nM)) | A (a value of 3 or above) |  |
| CN(C)C/C=C/C(=O)N1CC(S(=O)(=O)c2cc(-c3ccc(O)cc3)cc3[nH]ncc23)C1 [Compound 12-49] | > 100 nM |  | > 100 nM | 0.1 to 1 nM |  | > 100 nM |  |  |  |  |  |  | A (a value of 3 or above) | 200 to 1000 nM |
| C=CC(=O)N1CC(Oc2cc(-c3ccc(O)c(Cl)c3)cc3[nH]ncc23)C1 [Compound 5-4] |  |  |  |  | A (a value of 3 or above) |  | E (a pKi value of 7 or below (Ki of 100 nM or above)) | A (a pIC50 value≥7.5 (IC50≤32 nM)) | E (a pKi value of 7 or below (Ki of 100 nM or above)) | B (a pKi value between 9 and 10 (Ki between 1 nM and 0.1 nM)) | E (a pKi value of 7 or below (Ki of 100 nM or above)) |  |  |  |

— patent publication US10392368B2, “Pyrazolo and triazolo bicyclic compounds as JAK kinase inhibitors” (THERAVANCE BIOPHARMA R&D IP, LLC, priority 2017, dated 2019)
